Results reported in ChEMBL document CHEMBL5233219, “Diarylamides in anticancer drug discovery: A review of pre-clinical and clinical investigations” (Eur J Med Chem, 2020).

Assays:
[1] = Antiproliferative activity against human A375P cells; assay type: functional, cell-based
[2] = tested on: IGROV-1; assay: Antiproliferative activity against human IGROV-1 cells assessed as inhibition of cell growth relative to control; assay type: functional; set-up: scale not given: the % may be the effect or the level left
[3] = tested on: OVCAR-3; assay: Antiproliferative activity against human OVCAR-3 cells assessed as inhibition of cell growth; assay type: functional, cell-based
[4] = tested on: SK-OV-3; assay: Antiproliferative activity against human SK-OV-3 cells assessed as inhibition of cell growth relative to control; assay type: functional; set-up: scale not given: the % may be the effect or the level left
[5] = tested on: Macrophage; assay: Cytotoxicity against human Macrophage cells relative to control; assay type: functional
[6] = biological target: T1, Macrophage colony-stimulating factor 1 receptor (Homo sapiens, UniProt P07333); assay: Inhibition of FMS (unknown origin)
T1 sequence (P07333 whole entry): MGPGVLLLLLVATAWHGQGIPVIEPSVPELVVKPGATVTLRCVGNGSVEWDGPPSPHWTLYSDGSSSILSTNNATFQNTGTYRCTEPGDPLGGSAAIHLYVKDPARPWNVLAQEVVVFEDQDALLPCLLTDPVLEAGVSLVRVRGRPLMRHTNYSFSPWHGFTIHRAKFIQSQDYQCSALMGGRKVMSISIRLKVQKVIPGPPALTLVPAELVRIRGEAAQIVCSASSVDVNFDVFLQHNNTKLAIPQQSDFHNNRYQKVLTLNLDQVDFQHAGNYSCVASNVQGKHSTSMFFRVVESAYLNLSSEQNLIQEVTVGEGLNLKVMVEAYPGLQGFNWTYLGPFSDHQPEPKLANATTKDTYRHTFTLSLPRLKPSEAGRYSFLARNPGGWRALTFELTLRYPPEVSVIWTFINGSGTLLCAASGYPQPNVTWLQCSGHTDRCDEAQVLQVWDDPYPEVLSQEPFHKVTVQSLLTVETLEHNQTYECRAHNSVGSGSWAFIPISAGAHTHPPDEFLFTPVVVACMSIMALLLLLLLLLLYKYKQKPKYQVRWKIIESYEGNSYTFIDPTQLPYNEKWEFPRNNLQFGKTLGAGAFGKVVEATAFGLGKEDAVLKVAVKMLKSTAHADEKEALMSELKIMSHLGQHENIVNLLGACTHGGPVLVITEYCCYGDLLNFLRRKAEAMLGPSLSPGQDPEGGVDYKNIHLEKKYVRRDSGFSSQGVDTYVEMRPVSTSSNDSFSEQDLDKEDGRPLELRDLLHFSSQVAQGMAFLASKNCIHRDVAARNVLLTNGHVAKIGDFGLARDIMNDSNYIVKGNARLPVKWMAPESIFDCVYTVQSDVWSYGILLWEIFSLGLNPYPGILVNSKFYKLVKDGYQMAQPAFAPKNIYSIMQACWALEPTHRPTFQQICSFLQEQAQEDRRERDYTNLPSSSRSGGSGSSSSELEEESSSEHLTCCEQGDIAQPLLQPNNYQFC

[7] = tested on: HS27; assay: Cytotoxicity against human HS27 cells; assay type: functional, cell-based
[8] = tested on: T47D; assay: Antiproliferative activity against human T47D cells assessed as inhibition of cell growth relative to control; assay type: functional; set-up: scale not given: the % may be the effect or the level left
[9] = biological target: T1, Macrophage colony-stimulating factor 1 receptor; assay: Inhibition of FMS (unknown origin) relative to control; conditions: concentration not given here
[10] = tested on: DU-145; assay: Antiproliferative activity against human DU-145 cells assessed as inhibition of cell growth; assay type: functional, cell-based
[11] = tested on: SK-OV-3; assay: Antiproliferative activity against human SK-OV-3 cells assessed as inhibition of cell growth; assay type: functional, cell-based
[12] = tested on: Panel NCI-60 (60 carcinoma cell lines); assay: Antiproliferative activity against human Panel NCI-60 (60 carcinoma cell lines) assessed as reduction in cell viability; assay type: functional
[13] = tested on: OVCAR-5; assay: Antiproliferative activity against human OVCAR-5 cells assessed as reduction in cell viability; assay type: functional, cell-based
[14] = Cytotoxicity against human HUVEC cells; assay type: toxicity, cell-based
[15] = Cytotoxicity against human A375P cells; assay type: functional, cell-based
[16] = Drug absorption in mouse at 400 mg/kg, po; assay type: ADME, organism-based; conditions: in vivo, read-out: Drug absorption
[17] = tested on: SCH; assay: Antiproliferative activity against human SCH cells assessed as reduction in cell viability; assay type: functional, cell-based
[18] = AUC in mouse at 150 to 400 mg/kg, po administered twice daily; assay type: ADME, organism-based; set-up: route po; conditions: in vivo, dose 150-400 mg/kg
[19] = Inhibition of tyrosine kinase (unknown origin); set-up: species or system Homo sapiens
[20] = mouse, in vivo, po
Description: Volume of distribution in mouse at 150 to 400 mg/kg, po administered twice daily

[21] = Tmax in human; assay type: ADME
[22] = Drug excretion in rat feces assessed as cumulative amount of unchanged drug excreted at 10 mg/kg, po; assay type: ADME, organism-based; conditions: faeces, read-out: Drug excretion
[23] = Plasma concentration in mouse at 150 to 400 mg/kg, po administered twice daily; assay type: ADME, organism-based; conditions: in vivo, dose 150-400 mg/kg
[24] = Half life in mouse at 150 to 400 mg/kg, po administered twice daily; assay type: ADME, organism-based; conditions: in vivo, dose 150-400 mg/kg
[25] = Plasma protein binding in mouse at 150 to 400 mg/kg, po administered twice daily; assay type: ADME, organism-based; conditions: dose 150-400 mg/kg, read-out: PPB (converted)
[26] = Half life in human; assay type: ADME
[27] = Oral bioavailability in mouse at 150 to 400 mg/kg administered twice daily; assay type: ADME, organism-based; conditions: in vivo, dose 150-400 mg/kg
[28] = biological target: T2, Cytochrome P450 1A2 (Homo sapiens, UniProt P05177); assay: Inhibition of CYP1A2 (unknown origin); assay type: ADME
T2 sequence (P05177 whole entry): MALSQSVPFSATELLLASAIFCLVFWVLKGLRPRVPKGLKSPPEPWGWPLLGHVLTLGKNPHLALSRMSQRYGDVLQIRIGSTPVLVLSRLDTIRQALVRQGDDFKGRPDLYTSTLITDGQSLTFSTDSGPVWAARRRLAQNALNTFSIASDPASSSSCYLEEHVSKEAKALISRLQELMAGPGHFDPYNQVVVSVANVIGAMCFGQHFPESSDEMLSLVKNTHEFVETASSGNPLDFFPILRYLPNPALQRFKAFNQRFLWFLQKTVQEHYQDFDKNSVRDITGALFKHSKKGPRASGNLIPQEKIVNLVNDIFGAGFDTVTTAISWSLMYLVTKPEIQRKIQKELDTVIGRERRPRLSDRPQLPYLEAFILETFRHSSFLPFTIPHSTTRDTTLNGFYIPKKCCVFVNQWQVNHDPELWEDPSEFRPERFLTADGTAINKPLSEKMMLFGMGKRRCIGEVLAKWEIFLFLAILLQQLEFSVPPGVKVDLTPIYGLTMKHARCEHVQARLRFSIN

[29] = Inhibition of tyrosine kinase (unknown origin) in human LNCaP-abl cells
[30] = Cmax in male mouse plasma; assay type: ADME, cell-free
[31] = Oral bioavailability in mouse; assay type: ADME, organism-based; conditions: in vivo
[32] = Plasma concentration in mouse at 400 to 600 mg/kg, po administered once daily; assay type: ADME, organism-based; conditions: in vivo, dose 400-600 mg/kg
[33] = AUC in mouse at 400 to 600 mg/kg, po administered once daily; assay type: ADME, organism-based; set-up: route po; conditions: in vivo, dose 400-600 mg/kg
[34] = Cmax in female mouse plasma; assay type: ADME, cell-free
[35] = Oral bioavailability in mouse at 400 to 600 mg/kg; assay type: ADME, organism-based; conditions: in vivo, dose 400-600 mg/kg
[36] = Cmax in mouse plasma; assay type: ADME, cell-free
[37] = biological target: Cytochrome P450 2C19 (Homo sapiens, UniProt P33261); assay: Inhibition of CYP2C19 (unknown origin); assay type: ADME
Cytochrome P450 2C19, sequence (P33261 whole entry): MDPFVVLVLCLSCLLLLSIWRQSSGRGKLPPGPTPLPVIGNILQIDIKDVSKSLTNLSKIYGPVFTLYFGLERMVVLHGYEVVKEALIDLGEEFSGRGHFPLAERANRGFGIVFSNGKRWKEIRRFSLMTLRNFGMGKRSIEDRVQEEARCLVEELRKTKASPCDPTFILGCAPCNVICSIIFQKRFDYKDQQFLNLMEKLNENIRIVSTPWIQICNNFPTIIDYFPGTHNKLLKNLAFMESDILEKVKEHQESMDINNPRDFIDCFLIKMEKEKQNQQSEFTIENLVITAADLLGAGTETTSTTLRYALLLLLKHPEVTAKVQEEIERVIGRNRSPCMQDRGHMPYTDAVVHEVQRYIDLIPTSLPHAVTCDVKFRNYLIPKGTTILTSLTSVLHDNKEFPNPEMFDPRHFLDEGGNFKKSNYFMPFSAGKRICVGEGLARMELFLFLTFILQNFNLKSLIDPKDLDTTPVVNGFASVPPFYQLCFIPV

[38] = biological target: Cytochrome P450 2D6 (Homo sapiens, UniProt P10635); assay: Inhibition of CYP2D6 (unknown origin); assay type: ADME
Cytochrome P450 2D6, sequence (P10635 whole entry): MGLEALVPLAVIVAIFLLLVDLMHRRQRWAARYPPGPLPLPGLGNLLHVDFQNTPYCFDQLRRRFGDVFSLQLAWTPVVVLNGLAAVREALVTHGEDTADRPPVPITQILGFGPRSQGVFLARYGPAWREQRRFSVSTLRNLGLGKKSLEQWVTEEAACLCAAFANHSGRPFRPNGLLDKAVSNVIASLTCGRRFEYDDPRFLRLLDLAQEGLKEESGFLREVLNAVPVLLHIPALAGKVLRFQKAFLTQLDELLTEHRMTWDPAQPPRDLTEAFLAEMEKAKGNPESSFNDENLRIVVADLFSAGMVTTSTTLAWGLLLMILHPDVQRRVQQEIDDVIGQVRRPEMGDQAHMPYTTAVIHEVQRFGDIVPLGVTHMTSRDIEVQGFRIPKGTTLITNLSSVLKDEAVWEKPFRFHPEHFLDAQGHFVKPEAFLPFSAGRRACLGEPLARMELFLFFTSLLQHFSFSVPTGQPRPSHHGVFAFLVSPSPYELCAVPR

[39] = tested on: Panel NCI-60 (60 carcinoma cell lines); assay: Antiproliferative activity against human Panel NCI-60 (60 carcinoma cell lines) assessed as reduction in cell viability at 10 uM; assay type: functional
[40] = Antiproliferative activity against human OVCAR assessed as reduction in cell viability; assay type: functional, cell-based
[41] = Antitumor activity against human OVCAR cells implanted in mouse assessed as tumor growth inhibition; assay type: functional
[42] = tested on: MDA-MB-468; assay: Anticancer activity against human MDA-MB-468 cells assessed as inhibition of cell growth; assay type: functional; set-up: scale not given: the % may be the effect or the level left
[43] = tested on: MCF7; assay: Anticancer activity against human MCF7 cells assessed as inhibition of cell growth; assay type: functional; set-up: scale not given: the % may be the effect or the level left
[44] = tested on: MOLT-4; assay: Anticancer activity against human MOLT-4 cells assessed as inhibition of cell growth; assay type: functional; set-up: scale not given: the % may be the effect or the level left
[45] = Volume of distribution in mouse at 100 mg/kg, po administered once daily; assay type: ADME, organism-based; conditions: in vivo
[46] = Half life in mouse at 100 mg/kg, po administered once daily; conditions: in vivo
[47] = Plasma protein binding in mouse at 100 mg/kg, po administered once daily; assay type: ADME, organism-based; conditions: read-out: PPB (converted)
[48] = Volume of distribution in human; assay type: ADME
[49] = AUC in mouse at 100 mg/kg, po administered once daily; assay type: ADME, organism-based; set-up: dose 100 mg/kg, route po; conditions: in vivo
[50] = Oral bioavailability in mouse at 100 mg/kg administered once daily; assay type: ADME, organism-based; conditions: in vivo
[51] = Plasma concentration in mouse at 100 mg/kg, po administered once daily; assay type: ADME, organism-based; conditions: in vivo

## Cc1ccc(NC(=O)Nc2ccc(Cl)nc2)cc1Nc1cc(=O)[nH]c(N)n1
[1]
  IC50: 190 nM

## O=C(Nc1cccc(-n2ccc3c(NC(=O)c4ccccc4)nccc32)c1)c1ccc(N2CCOCC2)c(C(F)(F)F)c1
[2]
  Activity: 90%
[3]
  IC50: 45 nM
[4]
  Activity: 106.2%
[5]
  Activity: 52%
[6]
  IC50: 30 nM
[7]
  IC50: 300 nM
[8]
  Activity: 90%
[9]
  inhibition: 90%
[10]
  IC50: 98 nM
[11]
  IC50: 3600 nM

## Cc1ccc(NC(=O)Nc2cc(F)cc(C(F)(F)F)c2)cc1Nc1cc(=O)[nH]c(N)n1
[1]
  IC50: 190 nM

## COc1ccc(-c2nn(-c3ccc(NC(=O)c4ccc(Cl)c(C(F)(F)F)c4)cc3)cc2-c2ccncc2)cc1Cl
[12]
  Activity: 103.16%
[13]
  IC50: 1330 nM

## COc1ccc(-c2nc3c(Nc4ccc(NC(=O)c5cccc(Cl)c5)cc4)nc(C)nc3o2)cc1
[14]
  IC50: 1280 nM

## CNC(=O)c1cc(Oc2ccc(NC(=O)Nc3ccc(Cl)c(C(F)(F)F)c3)cc2)ccn1 [SORAFENIB]
[7]
  IC50: 7800 nM
[15]
  IC50: 95 nM

## Cc1cn(-c2cc(NC(=O)c3ccc(C)c(Nc4nccc(-c5cccnc5)n4)c3)cc(C(F)(F)F)c2)cn1 [NILOTINIB]
[16]
  Fa: 35%
[17]
  IC50: 14600 nM
[18]
  AUC: 11.9 ng·h/mL
[19]
  IC50: 188 nM
[20]
  Vd: 0.55 L/kg
[21]
  Tmax: 3 h
[22]
  dose excreted: 69%
[23]
  Cp: 445 ng/mL
[24]
  half-life: 13 h
[25]
  fraction unbound: 0.02
[26]
  half-life: 17 h
[27]
  bioavailability: 25%

## Cc1ccc(NC(=O)c2ccc(CN3CCN(C)CC3)cc2)cc1Nc1nccc(-c2cccnc2)n1 [IMATINIB]
[28]
  inhibition (INH): 10%
[29]
  IC50: 188 nM
[17]
  IC50: 4700 nM
[30]
  Cmax: 921 ng/mL
[31]
  bioavailability: 98.3%
[32]
  Cp: 3.7 ng/mL
[19]
  IC50: 30 nM
[33]
  AUC: 24800 ng·h/mL
[34]
  Cmax: 1080 ng/mL
[35]
  bioavailability: 98.3%
[36]
  Cmax: 1.9 ng/mL
[37]
  inhibition (INH): 10%
[38]
  inhibition (INH): 10%

## Cc1nc(Nc2ccc(NC(=O)c3cccc(Cl)c3)cc2)c2nc(-c3ccc(Cl)cc3)oc2n1
[14]
  IC50: 1310 nM

## CCN1CCN(Cc2ccc(NC(=O)Nc3ccc(-n4ccc5c(NC(=O)c6ccccc6)nccc54)cc3)cc2C(F)(F)F)CC1
[7]
  IC50: 7800 nM
[15]
  IC50: 100 nM

## O=C(Nc1ccc(-n2ccc3c(NC(=O)c4ccccc4)ncnc32)cc1)Nc1cccc(Cl)c1Cl
[39]
  Activity: 109.18%
[40]
  IC50: 3670 nM
[41]
  TGI: 1800 nM

## COc1cc2cc3c(nc2cc1OC)CCN3Cc1ccc(NC(=O)c2ccc(Cl)c(C(F)(F)F)c2)cc1
[42]
  Activity: 87.13%
[43]
  Activity: 84.97%
[44]
  Activity: 43.19%

## Cc1nc(Nc2ncc(C(=O)Nc3c(C)cccc3Cl)s2)cc(N2CCN(CCO)CC2)n1.O [DASATINIB]
[45]
  Vd: 2.052 L
[46]
  half-life: 3 h
[47]
  fraction unbound: 0.04
[48]
  Vd: 2.05 L
[49]
  AUC: 48.8 ng·h/mL
[50]
  bioavailability: 14%
[51]
  Cp: 129 ng/mL
